Laboratory results from patent US20250204525A1, “ANTIMICROBIAL COMPOSITIONS” (Curie Co. Inc., priority 2023, published 2025).

Test system: bacterial pool of E. coli, S. aureus, and P. aeruginosa
Test: Antibacterial challenge testing of foaming hand soap (Example 2A)
Type: cell-based
Experimental: For antibacterial challenge testing, one vial each of E. coli, S. aureus, and P. aeruginosa was rehydrated in 1 mL peptone buffer. The concentrations of the cell suspensions were determined based on the Certificates of Analysis accompanying each bacteria vial, and the suspensions were combined and diluted in BPDB to make a 3×10^8 CFU/mL bacterial pool composed of 1×10^8 CFU/mL of each of E. coli, S. aureus, and P. aeruginosa at a final volume of 1 mL. For antifungal challenge testing, one vial of C. albicans was rehydrated in 1 mL peptone buffer. The concentration of the cell suspension was determined based on the Certificate of Analysis accompanying the vial of yeast. The resuspended cells were diluted in BPDB to 3×10^7 CFU/mL at a final volume of 1 mL.
The enumeration of the microbial population in antibacterial and antifungal challenge testing was performed in the following manner. At day 0, a 3-mL sample was collected from each of the prepared formulations and inoculated with 0.03 mL of the bacterial pool to obtain a final inoculum of 3×10^6 CFU/mL. The inoculated samples were maintained under the same conditions from day 0 to day 7. At each analysis timepoint, the inoculated samples were subjected to 10-fold serial dilutions in BPDB to obtain diluted samples such that 25-250 colonies were estimated to be yielded from 0.1 mL of the diluted sample plated on a tryptic soy agar petri dish containing Polysorbate 80 and Lecithin. The petri dishes were incubated at 31.5+/−1° C. for 24 to 48 hours. The petri dishes were then removed from the incubator and the colonies were counted and multiplied by their corresponding dilution factors to determine the bacterial concentrations (in CFU/mL) of the samples. At day 2 and day 7 post-inoculation, the serial dilutions, plating, and colony counting were repeated to monitor the changes in bacterial population.

[1] = foaming hand soap pH 6.5, sodium benzoate 0.5% alone
[2] = foaming hand soap pH 6.5, sodium benzoate 0.5% alone, listed as sodium benzoate
[3] = foaming hand soap pH 7.0, sodium benzoate 1% alone
[4] = foaming hand soap pH 7.0, sodium benzoate 1% alone, listed as sodium benzoate
[5] = foaming hand soap pH 7.5, sodium benzoate 1% alone
[6] = foaming hand soap pH 8.0, sodium benzoate 1% alone

## O=C([O-])c1ccccc1.[Na+] [Sodium Benzoate, Sodium benzoate]
[1]
  Day 2 log reduction in CFU/mL compared to Day 0: 0.84 log CFU/mL
  Day 7 log reduction in CFU/mL compared to Day 0: −1.25 log CFU/mL
[2]
  Day 2 log reduction in CFU/mL compared to Day 0: Modest reductions
  Day 7 log reduction in CFU/mL compared to Day 0: no reduction
[3]
  Day 2 log reduction in CFU/mL compared to Day 0: 0.88 log CFU/mL
  Day 7 log reduction in CFU/mL compared to Day 0: −1.39 log CFU/mL
[4]
  Day 2 log reduction in CFU/mL compared to Day 0: Modest reductions
  Day 7 log reduction in CFU/mL compared to Day 0: no reduction
[5]
  Day 2 log reduction in CFU/mL compared to Day 0: −0.62 log CFU/mL
  Day 7 log reduction in CFU/mL compared to Day 0: −1.23 log CFU/mL
Foaming hand soap pH 7.5, sodium benzoate 1% alone, listed as sodium benzoate
  Day 7 log reduction in CFU/mL compared to Day 0: no reduction
[6]
  Day 2 log reduction in CFU/mL compared to Day 0: −0.90 log CFU/mL
  Day 7 log reduction in CFU/mL compared to Day 0: −0.91 log CFU/mL
Foaming hand soap pH 8.0, sodium benzoate 1% alone, listed as sodium benzoate
  Day 7 log reduction in CFU/mL compared to Day 0: no reduction
